Like-named read-outs stand apart in the source and are kept apart here.
Experiments:
[1] = system: patient with an ocular condition; settings: brimonidine at 0.01% to […] vs tetrahydrozoline 0.05%, oxymetazoline […], naphazoline […]; one patient, baseline redness 4/4
Source text: In an average clinical situation, baseline redness is at 1-1.5/4.

[2] = system: over-responders; settings: contact lenses soaked in 0.008% brimonidine, of 100 Subjects (over-responders)
Source text: Contact lenses are often provided as daily wear lenses stored in a blisterpack solution.

[3] = FIG. 2
[4] = system: patients with chronic red eyes; experiment: Example 5: chronic red eyes, patient satisfaction assessment; assay type: in vivo, human; settings: eld brimonidine at […], drops twice a day for three to five weeks, seven patients
Experimental: The treatment was through drops twice a day for three to five weeks. At the end, patient satisfaction assessment was conducted.

[5] = system: under-responders; settings: of 100 Subjects (under-responders)
[6] = system: patient with an ocular condition of moderate hyperemia; experiment: FIGS. 5A-C: reversal of pre-induced rebound hyperemia; assay type: in vivo, human; settings: brimonidine at […], right eye after VISINE Original, FIG. 5C
Source text: FIG. 5A is a baseline visual appearance of two eyes of a patient with an ocular condition.

[7] = system: over-responders; settings: of 100 Subjects (over-responders)
[8] = system: over-responders wearing contact lenses; settings: 0.008% brimonidine while wearing contact lenses, of 100 Subjects (over-responders)
Source text: Contact lenses provide a reservoir to the surface of the eye allowing drugs to remain longer on the eye and increase their effectiveness.

[9] = 0.037% brimonidine after wash-out

With `Brc1c(N=C2NCCN2)ccc2nccnc12.O=C(O)C(O)C(O)C(=O)O` [brimonidine, 5-bromo-6-(2-imidazolidinylideneamino) quinoxaline L-tartrate] the “scleral whitening brightening effects” value [1] was “significant scleral whitening brightening effects”, the “Reduced Redness” value [2] was 95 and the Whitening [2] was 95. For the same molecule, the “concentration at which intraocular pressure reduction is at its maximum” value [3] was “about 0.09%”, the patient-reported redness [4] was “All patients reported reduced redness” and the “Reduced Redness” value [5, 9] was 95. For the same molecule, the Whitening [5, 9] was 95, the “Reduced Redness” value ([5]; […] brimonidine) was 35 and the Whitening ([5]; […] brimonidine) was 35. The “reversal of induced rebound hyperemia” value [6] was “reversing the VISINE Original® induced rebound hyperemia”, the “Reduced Redness” value ([7]; […] brimonidine after wash-out) was 95 and the Whitening ([7]; […] brimonidine after wash-out) was 95. For the same molecule, the “Reduced Redness” value ([7]; […] brimonidine) was 85, the Whitening ([7]; […] brimonidine) was 85 and the “Reduced Redness” value [8] was 95. For the same molecule, the Whitening [8] was 95.

From US11992488B2, “Vasoconstriction compositions and methods of use” (Eye Therapies, LLC, priority 2008, dated 2024)
